The results in this text go back to patent EP0132130A2, “Aroyl benzofuran and benzothiophene acetic and propionic acids processes for their production and pharmaceutical compositions containing them” (SYNTEX (U.S.A.) INC., priority 1983, dated 1985).

In experiment [1] the test system is carrageenin induced paw inflammation. Briefly: Screening test for anti-inflammatory activity: carrageenin induced paw inflammation in the rat (method of Winter et al.). As to conditions: activity relative to phenylbutazone = 1; oral by gavage at hour 0, female rats, carrageenin at hour 1, paws weighed at hour 4. Format: in vivo. How it is done: Initial small animal screening tests to determine anti-inflammatory activity potential include the carrageenin induced paw inflammation in the rat according to the method of Winter, et al., Proc. Soc. Exp. Biol. Med., 111:544-547, (1962) and the cotton pellet granuloma test in the rat according to the method of Meier, et al Experientia 6:469-471, (1950) and modifications thereof. The oral anti-inflammatory activity is determined utilizing carrageenin induced paw inflammation in the rat in accordance with the method of Winter, et al., Pro.Soc.Exp.Biol.Med., III:544-547, (1962). Female rats weighing 80-90 grams are used. The test materials are given at hour 0 orally by gavage in 1 ml of aqueous vehicle. At hour 1, 0.05 ml of a 1% solution (in 0.9% NaCl) of carrageenin is injected into the right hind paw. This injection causes inflammation of the paw. The rats are sacrificed at hour 4, at which time both hind paws are removed and weighed separately. The percent increase in paw size is calculated as follows: • Wt. of right paw - Wt of left ^paw X 100 […] The smaller the percent increase in paw size, the lesser the degree of inflammation and the greater the anti-inflammatory activity. Compounds of this invention show anti-inflammatory activity in this test as illustrated in Table 1 below.
A general note: Carrageenan injected into the paw causes an acute inflammation.

The subject of experiment [2] is phenylquinone induced writhing. Kind of experiment: Screening test for analgetic activity: mouse analgetic (anti-writhing) assay (method of Hendershot & Forsaith). Type of experiment: in vivo. The note with it: activity relative to aspirin = 1; oral by gavage, male Swiss-Webster mice, phenylquinone IP twenty minutes later. Here is the method:
Small animal screening tests to determine analgetic activity potential include the mouse analgetic (anti-writhing) assay according to the method of Hendershot and Forsaith, J. Pharmacol. Exp. Ther., 125:237-240, (1959).
The oral analgetic activity potential is determined utilizing the mouse analgetic (anti-writhing) assay in accordance with the method of Hendershot & Forsaith, J.Pharmacol.Exp.Ther., 125:237-240, (1959).
The test material is administered orally by gavage in an aqueous vehicle at time 0 to 18-20 gram male Swiss-Webster mice. Twenty minutes later 0.5 ml of a 0.02% solution of phenylquinone is injected IP. This solution induces writhing.
The total number of mice that writhe and the average number of writhes per mouse indicates the activity of the compound tested; the fewer writhes per mouse indicates a greater activity. Compounds of this invention show analgetic activity in this assay as illustrated in Table 2 below.
Background: An intraperitoneal irritant provokes the stretching counted in writhing tests.

`CC(C(=O)O)c1cc(C(=O)c2ccccc2)c2occc2c1` (racemic) [d,l 2-(7-benzoylbenzofuran-5-yl)propionic acid]: the “(Phenylbutazone = 1) Antiinflammatory Activity” value in experiment [1] is 2. The “Analgesic Activity (Aspirin = 1)” value in experiment [2] is recorded as 50.

As to `O=C(O)Cc1cc(C(=O)c2ccc(Cl)cc2)c2occc2c1` [7-(4-chlorobenzoyl)benzofuran-5-ylacetic acid], in experiment [1], the “(Phenylbutazone = 1) Antiinflammatory Activity” value was 0.5. Moreover, the “Analgesic Activity (Aspirin = 1)” value in experiment [2] is on record as 32.

With `CSc1ccc(C(=O)c2cc(CC(=O)O)cc3ccoc23)cc1` [7-(4-methylthiobenzoyl)benzofuran-5-ylacetic acid], in experiment [1], the “(Phenylbutazone = 1) Antiinflammatory Activity” value was found to be 1.5. In addition, the “Analgesic Activity (Aspirin = 1)” value in experiment [2] stood at 95.

For `CC(C(=O)O)c1cc(C(=O)c2ccc(Cl)cc2)c2occc2c1` (racemic) [d.1-2-(7-(4-chlorobenzoyl)benzofuran-5-yl)-propionic acid], the “(Phenylbutazone = 1) Antiinflammatory Activity” value in experiment [1] stood at 4. For the same molecule, the “Analgesic Activity (Aspirin = 1)” value in experiment [2] amounted to 35.

Regarding `O=C(O)Cc1cc(C(=O)c2ccc(Cl)cc2)c2sccc2c1` [7-(4-chlorobenzoyl)benzothiophen-5-ylacetic acid], the “(Phenylbutazone = 1) Antiinflammatory Activity” value in experiment [1] was determined as 1.5. The “Analgesic Activity (Aspirin = 1)” value in experiment [2] turned out to be 7.

For the molecule `CSc1ccc(C(=O)c2cc(C(C)C(=O)O)cc3ccoc23)cc1` (racemic) [d,l 2-(7-(4-methylthiobenzoyl)benzofuran-5-yl)-propionic acid], in experiment [1], the “(Phenylbutazone = 1) Antiinflammatory Activity” value is listed as 15. Besides, the “Analgesic Activity (Aspirin = 1)” value in experiment [2] came to 25.

With `O=C(O)Cc1cc(C(=O)c2ccccc2)c2occc2c1` [Ar=phenyl, R1=H, X1=O, X2=O, R2=H, R3=H, 7-benzoylbenzofuran-5-ylacetic acid], the “(Phenylbutazone = 1) Antiinflammatory Activity” value in experiment [1] amounted to 1. For the same molecule, the “Analgesic Activity (Aspirin = 1)” value in experiment [2] is 25.
